This is an account of results in patent publication US10647719B2, “Bicyclic compounds as dual ATX/CA inhibitors” (Hoffmann-La Roche Inc., priority 2015, dated 2020).

For one assay, the target named is human ATX (Homo sapiens (Human), UniProt Q13822). Briefly: Human ATX enzyme inhibition assay (fluorescence quenching, MR121 substrate). Format: biochemical. How it is done:
Human ATX Enzyme Inhibition Assay
ATX inhibition was measured by a fluorescence quenching assay using a specifically labeled substrate analogue (MR121 substrate). To obtain this MR121 substrate, BOC and TBS protected 6-amino-hexanoic acid (R)-3-({2-[3-(2-{2-[2-(2-amino-ethoxy)-ethoxy]-ethoxy}-ethoxy)-propionylamino]-ethoxy}-hydroxy-phosphoryloxy)-2-hydroxy-propyl ester (Ferguson et al., Org Lett 2006, 8 (10), 2023) was labeled with MR121 fluorophore (CAS 185308-24-1, 1-(3-carboxypropyl)-11-ethyl-1,2,3,4,8,9,10,11-octahydro-dipyrido[3,2-b:2′,3′-i]phenoxazin-13-ium) on the free amine of the ethanolamine side and then, after deprotection, subsequently with tryptophan on the side of the aminohexanoic acid.
(§1) Assay working solutions were made as follows:
Assay buffer (50 mM Tris-HCl, 140 mM NaCl, 5 mM KCl, 1 mM CaCl2, 1 mM MgCl2, 0.01% Triton-X-100, pH 8.0;
ATX solution: ATX (human His-tagged) stock solution (1.08 mg/mL in 20 mM bicine, pH 8.5, 0.15 M NaCl, 10% glycerol, 0.3% CHAPS, 0.02% NaN3), diluted to 1.4-2.5× final concentration in assay buffer;
MR121 substrate solution: MR121 substrate stock solution (800 μM MR121 substrate in DMSO), diluted to 2-5× final concentration in assay buffer.
Test compounds (10 mM stock in DMSO, 8 μL) were obtained in 384 well sample plates (Corning Costar #3655) and diluted with 8 μL DMSO. Row-wise serial dilutions were made by transferring 8 μL cpd solution to the next row up to row O. The compound and control solutions were mixed five times and 2 μL were transferred to 384 well assay plates (Corning Costar #3702). Then, 15 μL of 41.7 nM ATX solution was added (30 nM final concentration), mixed five times and then incubated for 15 minutes at 30° C. 10 μL of MR121 substrate solution was added (1 μM final concentration), mixed 30 times and then incubated for 15 minutes at 30° C.

The target of assay [1] is Human carbonic anhydrase II (hCA-II) (Homo sapiens (Human), UniProt P00918). Briefly: Human carbonic anhydrase-II inhibition assay (absorbance, 4-nitrophenyl acetate substrate). Format: biochemical. The procedure: Human Carbonic Anhydrase-II Inhibition Assay
Human carbonic anhydrase II (hCA-II) inhibition was measured by an absorbance method using 4-nitrophenyl acetate (4-NPA) as its substrate. 4-NPA can be catalyzed by active hCA II via a zinc-hydroxide mechanism. The nitrophenolate in the products can be ionized to generate a bright yellow anion with high absorbance at 348 to 400 nm, as reported in the literature (Armstrong et al., J. Biol. Chem. 1966, 241, 5137-5149). OD340 nm was chosen for detecting hCA II substrate conversion.
as §1
Assay buffer: 50 mM MOPS, 33 mM Na2SO4, 1 mM EDTA, 0.5 mg/ml BSA, pH 7.5;
Enzyme solution: hCA-II (human, full length) stock solution (1.0 mg/mL in 20 mM HEPES, 50 mM NaCl, pH 7.4), diluted to 2133× final concentration in assay buffer;
4-NPA substrate solution: 4-NPA substrate stock solution (250 mM in DMSO, stored at −20° C.), diluted to 50× final concentration in deionized water.
Test compounds (10 mM stock in DMSO, 100 μL) were obtained in […] sample plates (Corning Costar #3655) and diluted to 0.5 mM. Column-wise serial dilutions were made by transferring 20 μL compound solutions to the next column, from column 3 up to 22. After this, 1.2 μL were transferred to 384 well assay plates (Corning Costar #3701). Then 30 μL of 16 nM hCA II solution was added (8 nM final concentration), mixed five times. 30 μL of 4-NPA substrate solution was added (2.5 mM final concentration), mixed five times. Absorbance at 340 nm was then measured immediately as time zero. The assay plates were incubated at room temperature for 1 hour and then measured as time 1 hour (Perkin Elmer EnVision 2103; Filter: Photometric 340; Light intensity 60%; Number of flashes: 10). IC50 values and Ki values were calculated from these readouts.

Where [2] appears, read: human His-tagged ATX 30 nM, MR121 substrate 1 μM, 30° C., read-out: ATX IC50.
The mark [3] stands for this setting: hCA II 8 nM, 4-NPA 2.5 mM, absorbance 340 nm, room temperature 1 hour, read-out: CA-II IC50.

Like-named read-outs stand apart in the source and are kept apart here.

The IC50 is the concentration at which inhibition is half-maximal.

Regarding `CC(C)(C)C(=O)Nc1ccc(Cl)nc1COC(=O)N1CC2=C(C1)CN(C(=O)c1ccc(S(N)(=O)=O)c(F)c1)C2` [Example 1.21, [6-chloro-3-(2,2-dimethylpropanoylamino)pyridin-2-yl]methyl 2-(3-fluoro-4-sulfamoylbenzoyl)-1,3,4,6-tetrahydropyrrolo[3,4-c]pyrrole-5-carboxylate], the results for the IC50 (at human ATX (setting [2]); in assay [1] (setting [3])) were 12 nM and 3 nM, respectively.
With `CC(C)(C)C(=O)Nc1ccc(Cl)nc1COC(=O)N1CC2=C(C1)CN(C(=O)c1ccc(S(N)(=O)=O)c(F)c1F)C2` [Example 1.22, [6-chloro-3-(2,2-dimethylpropanoylamino)pyridin-2-yl]methyl 2-(2,3-difluoro-4-sulfamoylbenzoyl)-1,3,4,6-tetrahydropyrrolo[3,4-c]pyrrole-5-carboxylate], the values for the IC50 (on human ATX (setting [2]); in assay [1] (setting [3])) were 6 nM and 2 nM, respectively.
In the same order, the values of `CC(C)(C)C(=O)Nc1ccc(Cl)nc1COC(=O)N1CC2=C(C1)CN(C(=O)c1c(F)cc(S(N)(=O)=O)cc1F)C2` [Example 1.23, [6-chloro-3-(2,2-dimethylpropanoylamino)pyridin-2-yl]methyl 2-(2,6-difluoro-4-sulfamoylbenzoyl)-1,3,4,6-tetrahydropyrrolo[3,4-c]pyrrole-5-carboxylate] are 10 nM and 1 nM.
`CC(C)(C)C(=O)Nc1cc(C#N)cnc1COC(=O)N1CC2=C(C1)CN(C(=O)c1cc(F)c(S(N)(=O)=O)cc1F)C2` [Example 1.27, [5-cyano-3-(2,2-dimethylpropanoylamino)pyridin-2-yl]methyl 2-(2,5-difluoro-4-sulfamoylbenzoyl)-1,3,4,6-tetrahydropyrrolo[3,4-c]pyrrole-5-carboxylate]: the IC50 at human ATX (setting [2]) was determined as 8 nM; in assay [1] (setting [3]) it was 18 nM.
Turning to `CC(C)(C)C(=O)Nc1cc(Cl)c(Cl)nc1COC(=O)N1CC2=C(C1)CN(C(=O)c1ccc(S(N)(=O)=O)cc1F)C2` [Example 1.29, [5,6-dichloro-3-(2,2-dimethylpropanoylamino)pyridin-2-yl]methyl 2-(2-fluoro-4-sulfamoylbenzoyl)-1,3,4,6-tetrahydropyrrolo[3,4-c]pyrrole-5-carboxylate], the values for the IC50 (against human ATX; in assay [1]) were 11 nM and 1.2 nM, respectively.
Consider `CC(C)(C)C(=O)Nc1cc(Cl)c(Cl)nc1COC(=O)N1CC2=C(C1)CN(C(=O)c1ccc(S(N)(=O)=O)c(F)c1F)C2` [Example 1.30, [5,6-dichloro-3-(2,2-dimethylpropanoylamino)pyridin-2-yl]methyl 2-(2,3-difluoro-4-sulfamoylbenzoyl)-1,3,4,6-tetrahydropyrrolo[3,4-c]pyrrole-5-carboxylate], for which the IC50 was determined as 10 nM against human ATX and 4.2 nM in assay [1].
In the same order, the values of `CC(C)(C)C(=O)Nc1cc(Cl)c(Cl)nc1COC(=O)N1CC2=C(C1)CN(C(=O)c1c(F)cc(S(N)(=O)=O)cc1F)C2` [Example 1.31, [5,6-dichloro-3-(2,2-dimethylpropanoylamino)pyridin-2-yl]methyl 2-(2,6-difluoro-4-sulfamoylbenzoyl)-1,3,4,6-tetrahydropyrrolo[3,4-c]pyrrole-5-carboxylate] are 10 nM and 11.5 nM.
In the same order, the values of `CC(C)(C)C(=O)Nc1cc(C(F)(F)F)cnc1COC(=O)N1CC2=C(C1)CN(C(=O)c1ncc(S(N)(=O)=O)cc1F)C2` [Example 1.32, [3-(2,2-dimethylpropanoylamino)-5-(trifluoromethyl)pyridin-2-yl]methyl 2-(3-fluoro-5-sulfamoylpyridine-2-carbonyl)-1,3,4,6-tetrahydropyrrolo[3,4-c]pyrrole-5-carboxylate] are 5 nM and 2.5 nM.
For the molecule `NS(=O)(=O)c1ccc(C(=O)N2CC3=C(CN(C(=O)c4cc(OCC5CCOCC5)nc(C5CC5)c4)C3)C2)c(F)c1F` [Example 1.33, 4-[5-[2-cyclopropyl-6-(oxan-4-ylmethoxy)pyridine-4-carbonyl]-1,3,4,6-tetrahydropyrrolo[3,4-c]pyrrole-2-carbonyl]-2,3-difluorobenzenesulfonamide], the half-maximal inhibitory concentration (IC50) against human ATX was 1 nM; in assay [1], 2.3 nM.
In the case of `CN1CCC(COc2cc(C(=O)N3CC4=C(C3)CN(C(=O)c3ccc(S(N)(=O)=O)c(F)c3F)C4)cc(C3CC3)n2)CC1` [Example 1.34, 4-[5-[2-cyclopropyl-6-[(1-methylpiperidin-4-yl)methoxy]pyridine-4-carbonyl]-1,3,4,6-tetrahydropyrrolo[3,4-c]pyrrole-2-carbonyl]-2,3-difluorobenzenesulfonamide], the values for the IC50 (against human ATX; in assay [1]) were 12 nM and 1 nM, respectively.
The matching figures for `CC(C)(C)C(=O)Nc1cc(C#N)c(Cl)cc1COC(=O)N1CC2=C(C1)CN(C(=O)c1ccc(S(N)(=O)=O)cn1)C2` [Example 2.00, [5-Chloro-4-cyano-2-(2,2-dimethylpropanoylamino)phenyl]methyl 2-(5-sulfamoylpyridine-2-carbonyl)-1,3,4,6-tetrahydropyrrolo[3,4-c]pyrrole-5-carboxylate]: 1 nM and 24 nM.
For the molecule `NS(=O)(=O)c1ccc(C(=O)N2CCC3=C(CCN(C(=O)OCc4ccc(OC(F)(F)F)cc4)C3)C2)c(F)c1` [Example 2.01, [4-(trifluoromethoxy)phenyl]methyl 6-(2-fluoro-4-sulfamoylbenzoyl)-1,3,4,5,7,8-hexahydro-2,6-naphthyridine-2-carboxylate], the results for the half-maximal inhibitory concentration (IC50) (against human ATX; in assay [1]) were 14 nM and 18 nM, respectively.
The matching figures for `NS(=O)(=O)c1ccc(C(=O)N2CC3=C(CN(C(=O)OCc4ccc(OC(F)(F)F)cc4)C3)C2)nc1` [Example 2.02, [4-(trifluoromethoxy)phenyl]methyl 2-(5-sulfamoylpyridine-2-carbonyl)-1,3,4,6-tetrahydropyrrolo[3,4-c]pyrrole-5-carboxylate]: 3 nM and 8 nM.
The matching figures for `NS(=O)(=O)c1ccc(C(=O)N2CC3=C(CN(C(=O)OCc4ccc(OC(F)(F)F)cc4)C3)C2)c(F)c1` [Example 2.03, [4-(trifluoromethoxy)phenyl]methyl 2-(2-fluoro-4-sulfamoylbenzoyl)-1,3,4,6-tetrahydropyrrolo[3,4-c]pyrrole-5-carboxylate]: 2 nM and 6 nM.
In the case of `Cc1nnn(Cc2cc(Cl)cnc2COC(=O)N2CC3=C(C2)CN(C(=O)c2ccc(S(N)(=O)=O)cc2F)C3)n1` [Example 2.04, [5-chloro-3-[(5-methyltetrazol-2-yl)methyl]pyridin-2-yl]methyl 2-(2-fluoro-4-sulfamoylbenzoyl)-1,3,4,6-tetrahydropyrrolo[3,4-c]pyrrole-5-carboxylate], the IC50 against human ATX worked out at 12 nM; in assay [1], 1.9 nM.
In the case of `NS(=O)(=O)c1ccc(C(=O)N2CC3=C(CN(C(=O)/C=C/c4ccc(OC(F)(F)F)cc4)C3)C2)c(F)c1` [Example 3.00, 3-Fluoro-4-[2-[(E)-3-[4-(trifluoromethoxy)phenyl]prop-2-enoyl]-1,3,4,6-tetrahydropyrrolo[3,4-c]pyrrole-5-carbonyl]benzenesulfonamide], the concentration for half-maximal inhibition (IC50) at human ATX (setting [2]) worked out at 5 nM; in assay [1] (setting [3]), 9 nM.
